Test results from patent publication US11926593B1, “6′-(3-bromophenyl)-2′-methoxy-3,4′-bipyridine-3′-carbonitrile as an antioxidant compound” (KING FAISAL UNIVERSITY, priority 2023, dated 2024).

Experiment: DPPH radical scavenging antioxidant test
Assay type: biochemical
Conditions: 517 nm; for Inhibition (radical scavenging inhibition): DPPH 0.2 mL (0.75 mM), compound 3 μM in ethanol, 30 minutes in the dark
Experimental: The antioxidant activity of 6′-(3-bromophenyl)-2′-methoxy-3,4′-bipyridine-3′-carbonitrile was investigated by 2,2-diphenyl-1-picrylhydrazyl (DPPH) in vitro tests that employ vitamin C as the positive control.
The antioxidant properties of the 6′-(3-bromophenyl)-2′-methoxy-3,4′-bipyridine-3′-carbonitrile compound were studied by adding 0.2 mL DPPH (0.75 mM)) to 6′-(3-bromophenyl)-2′-methoxy-3,4′-bipyridine-3′-carbonitrile (3 μM) (4) in ethanol. After 30 minutes of incubation in the dark, the absorbance was read against a blank at 517 nm. Ascorbic acid (vitamin C) was used as standard antioxidants (positive control). A blank sample was prepared by 0.2 mL of DPPH in 3 mL ethanol. A negative control sample was run using ethanol instead of the sample. The radical scavenging inhibition was calculated using the following equation: […]
The antioxidant activity for the synthesized compound is listed in Table 1, using Vitamin C as a reference.

Compound	Inhibition (radical scavenging inhibition) [%]	antioxidant potential compared to vitamin C (DPPH in vitro test, vitamin C as positive control)
COc1nc(-c2cccc(Br)c2)cc(-c2cccnc2)c1C#N [Product 4, 6′-(3-bromophenyl)-2′-methoxy-3,4′-bipyridine-3′-carbonitrile]	50	high potential as an antioxidant
O=C1O[C@H]([C@@H](O)CO)C(O)=C1O [vit c, Ascorbic acid, reference compound]	74	
